Measured values published in ChEMBL document CHEMBL4265899, “Trisubstituted thiazoles as potent and selective inhibitors of Plasmodium falciparum protein kinase G (PfPKG)” (Bioorg Med Chem Lett, 2018).

How the values were obtained:
[1] = target: cGMP-dependent protein kinase (Plasmodium falciparum, UniProt W7JX98); assay: Inhibition of Plasmodium falciparum protein kinase G
[2] = tested on: Plasmodium falciparum; assay: Antimalarial activity against Plasmodium falciparum after 48 hrs by microbeta scintillation counting-based [3H]-hypoxanthine incorporation assay; format: functional, organism-based
[3] = target: Tyrosine-protein kinase Lck (Homo sapiens) (UniProt P06239); assay: Inhibition of human LCK at 100 nM
[4] = species: Homo sapiens; conditions: at 100 nM
Description: Inhibition of human PKA at 100 nM

[5] = target: Receptor tyrosine-protein kinase erbB-4 (Homo sapiens) (UniProt Q15303); assay: Inhibition of human HER4 at 100 nM
[6] = target: T1, Serine/threonine-protein kinase D1 (Homo sapiens) (UniProt Q15139); assay: Inhibition of human PKD1 at 100 nM
T1 sequence (whole entry): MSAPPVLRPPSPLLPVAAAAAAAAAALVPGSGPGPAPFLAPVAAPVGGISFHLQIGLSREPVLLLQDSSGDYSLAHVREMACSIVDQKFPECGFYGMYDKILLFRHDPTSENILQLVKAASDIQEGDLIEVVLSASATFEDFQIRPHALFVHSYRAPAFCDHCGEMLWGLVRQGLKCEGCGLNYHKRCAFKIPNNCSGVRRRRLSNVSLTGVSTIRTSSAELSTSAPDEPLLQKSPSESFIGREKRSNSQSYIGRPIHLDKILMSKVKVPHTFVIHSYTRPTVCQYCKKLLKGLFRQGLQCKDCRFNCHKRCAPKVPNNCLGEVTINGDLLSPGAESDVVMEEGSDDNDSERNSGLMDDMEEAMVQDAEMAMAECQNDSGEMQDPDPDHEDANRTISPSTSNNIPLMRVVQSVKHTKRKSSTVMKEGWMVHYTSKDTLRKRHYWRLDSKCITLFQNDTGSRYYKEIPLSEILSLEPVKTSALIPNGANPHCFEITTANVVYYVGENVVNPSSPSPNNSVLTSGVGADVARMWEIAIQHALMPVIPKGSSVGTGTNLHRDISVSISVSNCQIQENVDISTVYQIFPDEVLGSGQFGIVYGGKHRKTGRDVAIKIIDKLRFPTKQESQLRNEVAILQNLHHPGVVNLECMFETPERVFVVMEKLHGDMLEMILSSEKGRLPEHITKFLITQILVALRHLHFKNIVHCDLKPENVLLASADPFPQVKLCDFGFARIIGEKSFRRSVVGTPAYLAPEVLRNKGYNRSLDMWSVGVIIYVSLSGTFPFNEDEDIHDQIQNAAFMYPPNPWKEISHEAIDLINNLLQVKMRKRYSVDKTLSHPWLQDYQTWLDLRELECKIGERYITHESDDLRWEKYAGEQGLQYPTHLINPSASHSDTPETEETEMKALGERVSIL

[7] = target: Casein kinase I isoform alpha (Homo sapiens) (UniProt P48729); assay: Inhibition of human CK1 at 100 nM
[8] = target: T2, Inhibitor of nuclear factor kappa-B kinase subunit epsilon (Homo sapiens) (UniProt Q14164); conditions: at 100 nM
T2 sequence (whole entry): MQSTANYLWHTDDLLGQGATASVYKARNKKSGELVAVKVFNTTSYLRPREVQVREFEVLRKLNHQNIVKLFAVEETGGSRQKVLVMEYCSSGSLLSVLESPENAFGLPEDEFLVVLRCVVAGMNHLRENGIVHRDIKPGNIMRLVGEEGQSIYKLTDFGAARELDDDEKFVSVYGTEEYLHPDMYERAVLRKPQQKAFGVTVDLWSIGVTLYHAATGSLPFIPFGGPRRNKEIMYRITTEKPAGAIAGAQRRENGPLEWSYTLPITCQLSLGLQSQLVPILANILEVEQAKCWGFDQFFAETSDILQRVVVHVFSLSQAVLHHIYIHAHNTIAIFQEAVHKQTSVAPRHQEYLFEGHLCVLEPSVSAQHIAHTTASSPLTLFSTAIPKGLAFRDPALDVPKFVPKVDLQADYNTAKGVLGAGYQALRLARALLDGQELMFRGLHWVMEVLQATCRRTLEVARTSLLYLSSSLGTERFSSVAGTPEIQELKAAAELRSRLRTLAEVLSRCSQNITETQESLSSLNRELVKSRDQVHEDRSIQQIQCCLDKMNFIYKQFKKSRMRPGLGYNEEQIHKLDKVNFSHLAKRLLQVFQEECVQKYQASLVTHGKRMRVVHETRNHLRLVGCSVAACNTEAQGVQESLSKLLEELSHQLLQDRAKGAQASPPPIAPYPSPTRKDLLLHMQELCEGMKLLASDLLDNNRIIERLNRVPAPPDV
Description: Inhibition of human IKKepsilon at 100 nM

[9] = target: Tyrosine-protein kinase Yes (Homo sapiens) (UniProt P07947); assay: Inhibition of human YES1 at 100 nM
[10] = target: Misshapen-like kinase 1 (Homo sapiens) (UniProt Q8N4C8); assay: Inhibition of human MINK1 at 100 nM
[11] = target: T3, Inhibitor of nuclear factor kappa-B kinase subunit beta (Homo sapiens) (UniProt O14920); conditions: at 100 nM
T3 sequence (whole entry): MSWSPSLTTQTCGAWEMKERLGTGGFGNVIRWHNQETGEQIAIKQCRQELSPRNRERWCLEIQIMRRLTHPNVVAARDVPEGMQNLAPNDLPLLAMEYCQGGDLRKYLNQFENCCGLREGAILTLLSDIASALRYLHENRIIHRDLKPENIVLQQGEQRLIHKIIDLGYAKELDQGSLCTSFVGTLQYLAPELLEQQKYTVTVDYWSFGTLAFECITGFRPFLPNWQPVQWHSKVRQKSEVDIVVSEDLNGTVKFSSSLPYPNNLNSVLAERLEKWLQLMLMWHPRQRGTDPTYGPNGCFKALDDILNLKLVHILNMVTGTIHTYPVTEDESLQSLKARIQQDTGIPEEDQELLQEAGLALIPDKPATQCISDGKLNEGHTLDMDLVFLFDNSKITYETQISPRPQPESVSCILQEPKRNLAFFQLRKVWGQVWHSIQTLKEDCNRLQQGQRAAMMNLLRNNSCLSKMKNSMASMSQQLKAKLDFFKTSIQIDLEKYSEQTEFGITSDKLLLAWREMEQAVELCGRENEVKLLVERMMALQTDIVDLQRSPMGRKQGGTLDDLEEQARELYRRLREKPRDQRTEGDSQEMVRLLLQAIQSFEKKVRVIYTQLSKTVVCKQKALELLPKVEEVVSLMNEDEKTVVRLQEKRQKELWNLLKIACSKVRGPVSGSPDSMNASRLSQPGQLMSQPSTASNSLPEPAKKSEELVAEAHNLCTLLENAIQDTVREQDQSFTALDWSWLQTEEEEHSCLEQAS
Description: Inhibition of human IKKb at 100 nM

Sequence of cGMP-dependent protein kinase (W7JX98 whole entry): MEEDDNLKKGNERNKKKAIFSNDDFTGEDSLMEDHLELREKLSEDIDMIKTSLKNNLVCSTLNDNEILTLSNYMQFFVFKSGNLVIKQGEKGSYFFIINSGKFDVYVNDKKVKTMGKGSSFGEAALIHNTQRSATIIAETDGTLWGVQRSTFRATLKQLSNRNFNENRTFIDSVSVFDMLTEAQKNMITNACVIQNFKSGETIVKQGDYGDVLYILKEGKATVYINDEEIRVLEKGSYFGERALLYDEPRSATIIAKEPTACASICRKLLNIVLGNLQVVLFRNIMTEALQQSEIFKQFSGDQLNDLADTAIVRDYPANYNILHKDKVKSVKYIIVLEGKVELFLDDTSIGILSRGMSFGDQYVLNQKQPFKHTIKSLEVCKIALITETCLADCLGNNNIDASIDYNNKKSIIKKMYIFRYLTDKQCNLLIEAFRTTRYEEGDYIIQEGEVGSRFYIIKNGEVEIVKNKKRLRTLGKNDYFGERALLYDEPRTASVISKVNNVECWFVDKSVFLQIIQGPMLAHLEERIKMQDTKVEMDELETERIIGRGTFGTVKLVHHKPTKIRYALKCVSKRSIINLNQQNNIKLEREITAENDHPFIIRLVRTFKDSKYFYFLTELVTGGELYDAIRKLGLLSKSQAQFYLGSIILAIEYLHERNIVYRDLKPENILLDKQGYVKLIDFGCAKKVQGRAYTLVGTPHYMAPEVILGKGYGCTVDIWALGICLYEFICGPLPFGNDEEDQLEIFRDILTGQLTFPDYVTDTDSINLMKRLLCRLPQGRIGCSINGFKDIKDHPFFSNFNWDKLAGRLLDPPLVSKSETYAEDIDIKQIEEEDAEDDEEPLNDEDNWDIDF
Sequence of Casein kinase I isoform alpha (Homo sapiens) (P48729 2-337 limits assumed): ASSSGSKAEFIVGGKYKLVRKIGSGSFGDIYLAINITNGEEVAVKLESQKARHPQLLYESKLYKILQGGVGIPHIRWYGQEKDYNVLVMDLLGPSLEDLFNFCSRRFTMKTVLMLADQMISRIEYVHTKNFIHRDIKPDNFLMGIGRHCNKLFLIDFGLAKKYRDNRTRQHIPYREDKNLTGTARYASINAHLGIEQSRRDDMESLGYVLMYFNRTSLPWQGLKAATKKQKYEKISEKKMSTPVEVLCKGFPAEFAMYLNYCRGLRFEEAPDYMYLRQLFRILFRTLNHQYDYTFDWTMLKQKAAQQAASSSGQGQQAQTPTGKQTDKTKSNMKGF
Sequence of Receptor tyrosine-protein kinase erbB-4 (Homo sapiens) (Q15303 whole entry): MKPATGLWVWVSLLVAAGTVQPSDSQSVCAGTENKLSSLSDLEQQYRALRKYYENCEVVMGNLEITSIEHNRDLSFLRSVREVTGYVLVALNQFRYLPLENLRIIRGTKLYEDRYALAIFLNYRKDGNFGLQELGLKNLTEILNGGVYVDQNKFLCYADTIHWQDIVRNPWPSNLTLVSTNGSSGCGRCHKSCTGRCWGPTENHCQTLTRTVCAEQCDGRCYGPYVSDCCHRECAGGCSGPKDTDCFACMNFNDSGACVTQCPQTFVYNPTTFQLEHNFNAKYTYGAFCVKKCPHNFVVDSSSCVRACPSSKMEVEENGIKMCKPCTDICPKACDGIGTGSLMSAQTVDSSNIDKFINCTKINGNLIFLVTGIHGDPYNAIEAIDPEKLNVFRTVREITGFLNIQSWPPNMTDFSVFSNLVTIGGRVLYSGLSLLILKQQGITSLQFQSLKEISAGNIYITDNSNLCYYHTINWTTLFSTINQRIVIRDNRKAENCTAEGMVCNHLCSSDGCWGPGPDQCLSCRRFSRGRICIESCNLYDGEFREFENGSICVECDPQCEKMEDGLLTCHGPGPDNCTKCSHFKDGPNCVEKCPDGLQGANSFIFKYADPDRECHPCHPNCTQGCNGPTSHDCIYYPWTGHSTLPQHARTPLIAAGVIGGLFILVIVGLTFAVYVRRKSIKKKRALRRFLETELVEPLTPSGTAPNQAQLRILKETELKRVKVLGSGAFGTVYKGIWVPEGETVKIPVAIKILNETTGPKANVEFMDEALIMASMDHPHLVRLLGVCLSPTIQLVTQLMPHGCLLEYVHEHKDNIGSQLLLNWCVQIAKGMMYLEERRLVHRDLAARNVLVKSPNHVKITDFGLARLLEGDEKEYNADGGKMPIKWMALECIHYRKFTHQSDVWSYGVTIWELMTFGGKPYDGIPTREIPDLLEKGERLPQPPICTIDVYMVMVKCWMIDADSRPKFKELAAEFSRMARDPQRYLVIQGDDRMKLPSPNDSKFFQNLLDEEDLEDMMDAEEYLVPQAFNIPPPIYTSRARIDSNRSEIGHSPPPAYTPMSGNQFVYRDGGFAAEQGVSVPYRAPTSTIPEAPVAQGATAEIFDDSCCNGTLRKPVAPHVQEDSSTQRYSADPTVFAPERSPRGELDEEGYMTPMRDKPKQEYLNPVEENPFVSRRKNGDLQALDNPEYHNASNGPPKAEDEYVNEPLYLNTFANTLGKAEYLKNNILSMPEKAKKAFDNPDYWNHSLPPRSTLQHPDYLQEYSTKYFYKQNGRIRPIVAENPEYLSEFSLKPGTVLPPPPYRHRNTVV
Sequence of Tyrosine-protein kinase Yes (Homo sapiens) (P07947 2-543 limits assumed): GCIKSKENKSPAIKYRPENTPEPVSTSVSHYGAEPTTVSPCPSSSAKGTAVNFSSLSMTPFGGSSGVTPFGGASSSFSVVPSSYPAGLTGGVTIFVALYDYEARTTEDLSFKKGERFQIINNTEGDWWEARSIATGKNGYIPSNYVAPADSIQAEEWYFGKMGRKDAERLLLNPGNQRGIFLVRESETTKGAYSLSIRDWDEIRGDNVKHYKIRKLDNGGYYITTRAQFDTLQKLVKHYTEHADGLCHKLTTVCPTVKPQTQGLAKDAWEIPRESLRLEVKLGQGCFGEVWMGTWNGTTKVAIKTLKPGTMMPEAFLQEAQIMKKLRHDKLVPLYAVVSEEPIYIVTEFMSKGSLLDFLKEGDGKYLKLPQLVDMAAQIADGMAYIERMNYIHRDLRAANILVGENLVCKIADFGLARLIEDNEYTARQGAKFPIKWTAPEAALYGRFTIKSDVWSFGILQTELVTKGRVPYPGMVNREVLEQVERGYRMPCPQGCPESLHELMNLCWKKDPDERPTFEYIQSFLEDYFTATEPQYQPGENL
Sequence of Misshapen-like kinase 1 (Homo sapiens) (Q8N4C8 whole entry, looked up): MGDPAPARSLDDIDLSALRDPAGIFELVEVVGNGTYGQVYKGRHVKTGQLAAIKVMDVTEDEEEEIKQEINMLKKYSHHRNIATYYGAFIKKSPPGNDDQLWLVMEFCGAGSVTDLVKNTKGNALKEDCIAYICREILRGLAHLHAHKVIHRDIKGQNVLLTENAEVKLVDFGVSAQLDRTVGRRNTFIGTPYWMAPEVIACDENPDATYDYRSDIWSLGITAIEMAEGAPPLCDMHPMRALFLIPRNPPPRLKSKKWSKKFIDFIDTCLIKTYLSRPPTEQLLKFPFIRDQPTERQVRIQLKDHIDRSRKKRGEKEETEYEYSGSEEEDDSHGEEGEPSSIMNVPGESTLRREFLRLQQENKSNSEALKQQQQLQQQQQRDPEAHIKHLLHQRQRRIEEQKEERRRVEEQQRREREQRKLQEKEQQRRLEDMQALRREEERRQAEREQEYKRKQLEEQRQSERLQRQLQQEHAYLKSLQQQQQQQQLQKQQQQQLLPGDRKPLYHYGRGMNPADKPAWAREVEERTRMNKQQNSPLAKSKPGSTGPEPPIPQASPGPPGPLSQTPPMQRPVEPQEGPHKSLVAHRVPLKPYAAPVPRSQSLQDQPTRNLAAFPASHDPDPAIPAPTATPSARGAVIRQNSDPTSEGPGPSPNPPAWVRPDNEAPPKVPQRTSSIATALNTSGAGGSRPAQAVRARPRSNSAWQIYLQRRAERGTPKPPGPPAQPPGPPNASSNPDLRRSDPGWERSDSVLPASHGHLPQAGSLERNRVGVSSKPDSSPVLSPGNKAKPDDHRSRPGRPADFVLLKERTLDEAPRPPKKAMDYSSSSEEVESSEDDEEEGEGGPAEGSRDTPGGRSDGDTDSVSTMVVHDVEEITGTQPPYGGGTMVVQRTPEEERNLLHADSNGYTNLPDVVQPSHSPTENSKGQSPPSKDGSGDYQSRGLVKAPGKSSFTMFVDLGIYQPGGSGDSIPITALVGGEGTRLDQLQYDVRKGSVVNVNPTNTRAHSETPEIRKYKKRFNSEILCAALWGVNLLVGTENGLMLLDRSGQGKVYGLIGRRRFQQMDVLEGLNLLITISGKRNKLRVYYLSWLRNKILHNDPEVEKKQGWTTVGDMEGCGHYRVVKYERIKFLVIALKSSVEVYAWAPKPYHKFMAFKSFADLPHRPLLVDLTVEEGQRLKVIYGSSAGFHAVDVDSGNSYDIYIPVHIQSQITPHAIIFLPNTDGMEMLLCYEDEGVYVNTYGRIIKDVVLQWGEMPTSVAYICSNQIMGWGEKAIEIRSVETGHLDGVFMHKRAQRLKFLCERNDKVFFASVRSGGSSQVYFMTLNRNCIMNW
Sequence of Tyrosine-protein kinase Lck (Homo sapiens) (P06239 2-509 limits assumed): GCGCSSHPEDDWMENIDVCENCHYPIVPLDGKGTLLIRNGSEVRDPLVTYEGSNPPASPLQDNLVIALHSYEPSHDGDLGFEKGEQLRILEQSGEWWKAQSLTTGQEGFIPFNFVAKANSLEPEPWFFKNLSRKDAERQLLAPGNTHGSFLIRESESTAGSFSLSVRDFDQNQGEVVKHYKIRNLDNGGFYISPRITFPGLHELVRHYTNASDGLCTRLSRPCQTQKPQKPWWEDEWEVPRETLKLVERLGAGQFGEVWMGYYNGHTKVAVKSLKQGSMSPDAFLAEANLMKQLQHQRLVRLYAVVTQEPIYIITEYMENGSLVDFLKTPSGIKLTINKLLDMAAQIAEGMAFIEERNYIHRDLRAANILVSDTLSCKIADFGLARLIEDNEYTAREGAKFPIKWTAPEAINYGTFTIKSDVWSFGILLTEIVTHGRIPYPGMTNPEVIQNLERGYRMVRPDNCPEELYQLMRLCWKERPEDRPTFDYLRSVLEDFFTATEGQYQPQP

Row | SMILES | IC50 [1] [µM] | EC50 [2] [µM] | further results
1 | Fc1ccc(-c2nc(C3CCNCC3)sc2-c2ccnc(Nc3ccc(N4CCNCC4)cc3)n2)cc1 | 0.0005 | 0.073 | –
2 | CN1CCC(c2nc(-c3cccc(S(C)(=O)=O)c3)c(-c3ccnc(NCC4CC4)n3)s2)CC1 | 0.006 | 1.33 | –
3 | CN1CCC(c2nc(-c3ccc(F)cc3)c(-c3ccnc(Nc4ccc(C5CCNCC5)cc4)n3)s2)CC1 | 0.0003 | 0.025 | –
4 | CN1CCC(c2nc(-c3ccc(F)cc3)c(-c3ccnc(Nc4ccc(N5CCNCC5)cc4)n3)s2)CC1 | – | – | inhibition [3]: > 90%; inhibition [4]: < 70%; inhibition [5]: > 90%; inhibition [6]: > 90%; inhibition [7]: > 90%; inhibition [8]: < 70%; inhibition [9]: > 90%; inhibition [10]: > 90%; inhibition [11]: < 70%
5 | CN1CCC(c2nc(-c3ccc(F)cc3)c(-c3ccnc(N)n3)s2)CC1 | 0.017 | 1.81 | –
6 | CN1CCC(c2nc(-c3cccc(S(C)(=O)=O)c3)c(-c3ccnc(N)n3)s2)CC1 | 0.033 | 4.57 | –
7 | CN1CCC(c2nc(-c3cccc(S(C)(=O)=O)c3)c(-c3ccnc(NC4CCOCC4)n3)s2)CC1 | 0.009 | 1.56 | –
8 | CNc1nccc(-c2sc(C3CCN(C)CC3)nc2-c2ccc(F)cc2)n1 | 0.015 | 1.49 | –
9 | CN1CCC(c2cc(-c3ccncc3)c(-c3ccc(F)cc3)[nH]2)CC1 | 0.006 | 0.45 | –
10 | CN1CCC(c2nc(-c3cccc(S(C)(=O)=O)c3)c(-c3ccnc(NC4CC4)n3)s2)CC1 | 0.017 | – | –
11 | CN(C)Cc1ccn2c(-c3ccnc(N)n3)c(-c3ccc(F)cc3)nc2c1 | 0.003 | 0.4 | –
12 | CN1CCC(c2nc(-c3ccc(F)cc3)c(-c3ccncn3)s2)C1 (stereo not given) | 0.006 | 0.144 | –
13 | CN1CCC(c2nc(C3CC3)c(-c3ccnc(Nc4ccc(N5CCNCC5)cc4)n3)s2)CC1 | 0.047 | 0.09 | –
14 | CN1CCC(c2nc(-c3ccc(F)cc3)c(-c3ccnc(Nc4ccc(N5CCN(C)CC5)cc4)n3)s2)CC1 | 0.001 | 0.155 | –
15 | Cc1nc(C2CCN(C)CC2)sc1-c1ccnc(Nc2ccc(N3CCNCC3)cc2)n1 | 0.149 | – | –
